Assay results published in ChEMBL document CHEMBL2069247, “A highly sensitive fluorescent viscosity sensor” (Bioorg Med Chem Lett, 2012).

Tests used:
HeLa [1] = assay: Drug uptake in human HeLa cells measured immediately; assay type: ADME, cell-based
HeLa [2] = assay: Drug uptake in human HeLa cells at 5 uM after 2 hrs by fluorescence microscopic analysis; assay type: ADME, cell-based

Cn1ccc2ccc(-c3ccc4c(-c5ccccc5C(=O)O)c5ccc(=O)cc-5oc4c3)cc21 was tested, and the Drug uptake (HeLa [1]) was “Active” and the Drug uptake (HeLa [2]) was “Active”.
